Holding throughout (format): cell-based, human
The test system of assay [1] is T-cell clone CR24. Nature of the assay: Activation assay of clone CR24 with exogenous peptide (peptide titration, MIP-1β ELISA).
Assay [2] deals with T-cell clone CR24. Nature of the assay: HLA A2 tetramer staining of CR24.
Assay [3] relates to CD8+ T-cells from HLA A2+ healthy donors. Nature of the assay: Priming of CD8+ T-cells from HLA A2+ healthy donors with WT and APL peptides, tetramer staining. The conditions noted are these: HLA A2+ healthy donors (n=3), compared to priming with WT peptides. How it is done: The peptides are sequence […] to the wild-type peptide and termed altered peptide ligands. […] (FIG. 9B) To test the APLs for super-agonist properties each of the WT and APL peptides were used to prime CD8+ T-cells from HLA A2+ healthy donors. The magnitude of the response to each of the peptides was assessed by staining the T-cells with tetramers for HLA A2-[…]
To generate T-cell peptide lines, CD8 T-cells were purified from the PBMCs of HLA A2+ donors using CD8 microbeads according to the manufacturer's instructions (Miltenyi Biotech, Bergisch Gladbach, Germany). Purified CD8 cells (3×10^6) were co-incubated with autologous CD8neg cells (6-8×10^6) in 24 well plates in 2 mL of T-cell media, but with no IL-15. 25 μM of each peptide was used. The cultures had 50% of the media changed thrice weekly. Tetramer staining was performed as above, using 500,000 cells per tube. […] 50,000 T-cells and 15,000 cancer cells were used per well. Incubation was performed for 48 h, and the assay developed according to the manufacturer's instructions (Mabtech, Nacka Strand, Sweden).
(§1) CPL assay of CR24 was performed as described above. Candidate peptide agonists were designed using the CR24 CPL and an online algorithm (http://wsbc.warwick.ac.uk/wsbcToolsWebpage/user_cases.php). Priming of CD8 T-cells from healthy donors, tetramer staining, and chromium release cytotoxicity assays were performed as described above.

For assay [4], the system named is CD8 T-cells from RCC, CLL and AML patients. Nature of the assay: Priming of CD8 T-cells from RCC, CLL and AML patients for 28 days, TAPI-0 assay or tetramer staining. From the text:
(§2) (FIG. 14A) CD8 T-cells from a renal cell carcinoma (RCC) and chronic lymphocytic leukaemia (CLL) patient were left unprimed or primed with […] peptide for 28 days.

In assay [5] the test system is autologous melanoma cells. Briefly: Chromium release cytotoxicity assay of peptide-primed T-cell lines with autologous melanoma. The conditions noted are these: compared to WT Melan A peptide primed T-cells. How it is done:
as §1

For assay [6], the system named is autologous cancer cells (RCC, CLL). Nature of the assay: Killing assay of peptide-primed CD8 T-cells with autologous cancer cells.
Source text: as §2

As to “NLSALGIFST (listed as Homo sapiens) [wild-type peptide from IMP2 (residues 367-376)]”, in assay [1], the “recognition by CR24 as exogenous peptide” value was “recognised”. The entries for the “CR24 response to individual peptide” value in assay [1] (peptide at 10^-6 M) and in assay [1] (peptide at 10^-8 M) were “responded” and “responses dropped”, respectively. Moreover, in assay [2], the “staining of CR24 with HLA A2 tetramer containing the peptide” value is listed as “stained”.
In the case of “ITSAIGILPV (listed as Homo sapiens) [APL 2, altered peptide ligand, candidate super-agonist designed from CR24 CPL data]”, in assay [3], the “priming of Melan A, BST2 and IMP2 tetramer-positive T-cells” value is given as “exhibiting effect across each donor”.
In the case of “LLLGIGILVL (listed as Homo sapiens) [wild-type peptide from BST2 (residues 22-31)]”, the “recognition by CR24 as exogenous peptide” value in assay [1] is reported as “recognised”. In addition, the “CR24 response to individual peptide” value in assay [1] (peptide at 10^-6 M) is on record as “responded”; in assay [1] (peptide at 10^-8 M), “responses dropped”. Also, the “staining of CR24 with HLA A2 tetramer containing the peptide” value in assay [2] is on record as “stained”.
In the case of “MTSAIGILPV (listed as Homo sapiens) [APL 5, altered peptide ligand, super-agonist peptide for multi-pronged T-cells]”, the “priming of Melan A, BST2 and IMP2 tetramer-positive T-cells” value in assay [3] is “most effective super-agonist”; in assay [3] (listed as MTSAIGVLVP), “most effective of the candidate super-agonists”. In addition, the “proportion of IMP-2 specific T-cells (IMP-2 tetramer)” value in assay [4] (AML patient and two CLL patients, primed 28 days, compared to unprimed) is on record as “induced a greater proportion”. Also, in assay [4] (RCC patient (TAPI-0 assay), CLL patient (tetramer), primed 28 days), the “MTSAIGILPV specific T-cells after priming” value was “presence”. For the same sequence, the “priming of T-cells in RCC, CLL and AML patients” value in assay [4] (renal cell carcinoma, chronic lymphocytic leukaemia and acute myeloid leukaemia patients) is given as “superior at priming”. Moreover, in assay [5], the “lysis of autologous melanoma cells by peptide-primed T-cells” value was “superior lysis”. The “killing of CLL cells by primed T-cells” value in assay [6] (CLL patient 3, compared to IMP-2 primed CD8s) is “killed more CLL cells”. In addition, the “killing of autologous cancer cells by primed CD8s” value in assay [6] (RCC and CLL patient, compared to unprimed T-cells) was “killed more autologous cancer cells”.

Values taken from US20220233662A1, “NOVEL PEPTIDE” (University College Cardiff Consultants Ltd., priority 2020, published 2022).
